For one experiment, the target named is T1, hα2A receptor (Homo sapiens, UniProt P08913).
T1 construct: expressed in transfected cells; host or cells: CHO cells, stably transfected; membrane preparation
T1 sequence (P08913 1-465): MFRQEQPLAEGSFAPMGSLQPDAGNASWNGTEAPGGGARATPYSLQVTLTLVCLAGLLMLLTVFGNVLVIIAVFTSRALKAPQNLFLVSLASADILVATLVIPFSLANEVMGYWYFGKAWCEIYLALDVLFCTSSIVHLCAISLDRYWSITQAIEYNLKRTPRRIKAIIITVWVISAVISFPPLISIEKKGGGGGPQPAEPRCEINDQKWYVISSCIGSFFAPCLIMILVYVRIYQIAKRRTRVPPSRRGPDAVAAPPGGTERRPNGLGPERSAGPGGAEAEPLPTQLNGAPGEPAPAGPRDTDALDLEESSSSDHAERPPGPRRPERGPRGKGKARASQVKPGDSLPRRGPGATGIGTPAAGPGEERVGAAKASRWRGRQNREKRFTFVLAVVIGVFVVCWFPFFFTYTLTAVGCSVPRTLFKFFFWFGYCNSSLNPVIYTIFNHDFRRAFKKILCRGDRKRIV
The experiment can be described thus: Radioligand binding experiment for α2A-adrenoceptor ([3H]raulwolscine, CHO cell membranes). Particulars: [3H]raulwolscine binding; for IC50: read-out: h-α2A pIC50 (converted).

Another experiment addresses T2, hα2C receptor (Homo sapiens, UniProt P18825).
T2 construct: expressed in transfected cells; host or cells: CHO cells, stably transfected; membrane preparation
T2 sequence (P18825 1-462): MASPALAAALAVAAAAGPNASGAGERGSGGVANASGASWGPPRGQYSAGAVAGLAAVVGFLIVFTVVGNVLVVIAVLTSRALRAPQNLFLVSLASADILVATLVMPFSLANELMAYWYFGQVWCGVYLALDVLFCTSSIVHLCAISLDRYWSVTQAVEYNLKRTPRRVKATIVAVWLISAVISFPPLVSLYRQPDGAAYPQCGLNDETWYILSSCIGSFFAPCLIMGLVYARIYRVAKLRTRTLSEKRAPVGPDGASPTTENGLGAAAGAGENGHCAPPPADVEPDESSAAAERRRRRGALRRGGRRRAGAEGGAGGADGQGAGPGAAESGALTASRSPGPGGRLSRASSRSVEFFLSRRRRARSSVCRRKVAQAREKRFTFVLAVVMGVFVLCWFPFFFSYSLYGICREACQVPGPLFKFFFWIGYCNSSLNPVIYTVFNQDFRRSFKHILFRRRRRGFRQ
Briefly: Radioligand binding experiment for α2C-adrenoceptor ([3H]raulwolscine, CHO cell membranes). Particulars: [3H]raulwolscine binding; for IC50: read-out: h-α2C pIC50 (converted).

The target of another experiment is T3, 5HT-Transporter (Homo sapiens, UniProt P31645).
T3 construct: Human platelet membranes (Oceanix Biosciences Corporation, Hanover, Md., USA) were thawed; tissue Oceanix Biosciences Corporation, Hanover, Md., USA; host or cells: human platelet membranes
T3 sequence (P31645 whole entry): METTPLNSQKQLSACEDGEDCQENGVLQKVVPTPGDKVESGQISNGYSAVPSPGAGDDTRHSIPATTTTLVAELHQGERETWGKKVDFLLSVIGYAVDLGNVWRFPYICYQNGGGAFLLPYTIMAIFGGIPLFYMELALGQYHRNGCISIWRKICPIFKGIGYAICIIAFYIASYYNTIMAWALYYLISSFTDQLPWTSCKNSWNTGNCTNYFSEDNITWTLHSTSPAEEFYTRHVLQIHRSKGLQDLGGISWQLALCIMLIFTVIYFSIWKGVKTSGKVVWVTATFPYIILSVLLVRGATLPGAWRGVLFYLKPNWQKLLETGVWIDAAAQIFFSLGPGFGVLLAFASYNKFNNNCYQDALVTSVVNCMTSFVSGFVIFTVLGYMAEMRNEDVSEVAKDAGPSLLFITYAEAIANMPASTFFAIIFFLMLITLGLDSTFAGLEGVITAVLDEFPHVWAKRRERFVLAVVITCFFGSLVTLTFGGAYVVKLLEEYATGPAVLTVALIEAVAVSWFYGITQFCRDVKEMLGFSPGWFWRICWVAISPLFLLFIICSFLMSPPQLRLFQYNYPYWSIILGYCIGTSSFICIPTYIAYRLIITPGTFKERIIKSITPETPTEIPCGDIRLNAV
The experiment can be described thus: Binding experiment for the 5HT-transporter ([3H]paroxetine, human platelet membranes). Particulars: [3H]paroxetine 0.5 nM; for IC50: read-out: h-5HTT pIC50 (converted). Put shortly:
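Competition binding of [3H]paroxetine to human platelet membranes in Tris-HCl 50 mM, 120 mM NaCl, 5 mM KCl, with filtration and scintillation counting.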

We go through 38 compounds from patent publication US20090111801A1, “SUBSTITUTED PYRAZINONE DERIVATIVES FOR USE AS A MEDICINE” (Janssen Pharmaceutica N.V., priority 2006, published 2009).

In the case of `C/C(=C\c1ccccc1)CN1CCC(Nc2nccn(-c3ccc(N4CCCCC4)cc3)c2=O)CC1` [2-8], the IC50 at hα2A receptor was 39.8 nM; on hα2C receptor, 10 nM; on 5HT-Transporter it was 501 nM.
Turning to `C/C(=C\c1ccccc1)CN1CCC(Nc2nccn(-c3ccc(CNCC4CCCO4)cc3)c2=O)CC1` (stereo not drawn) [1-146], the “h-α2A pIC50” value on hα2A receptor is on record as 7.0. The “h-α2C pIC50” value at hα2C receptor is listed as 8.6. Besides, the “h-5HTT pIC50” value on 5HT-Transporter is reported as 6.3.
In the case of `C/C(=C\c1ccccc1)CN1CCC(Nc2nccn(CCCN(CC(=O)c3ccccc3)Cc3ccccc3)c2=O)CC1` [1-90], the IC50 at hα2A receptor was 126 nM; on hα2C receptor, 2 nM; at 5HT-Transporter, 631 nM.
In the same order, the values of `COC(=O)c1cccc(Cn2ccnc(NC3CCN(C/C(C)=C/c4ccccc4)CC3)c2=O)c1` [3-13] are 25.1 nM, 20 nM and 501 nM.
As to `C/C(=C\c1ccccc1)CN1CCC(Nc2nccn(Cc3ccc(S(C)(=O)=O)cc3)c2=O)CC1` [5-26], the IC50 at hα2A receptor is 126 nM; at hα2C receptor it was 25.1 nM; on 5HT-Transporter it was 1260 nM.
Consider `C/C(=C\c1ccccc1)CN1CCC(Nc2nccn(-c3cccc(CNCCCN4CCCC4=O)c3)c2=O)CC1` [1-133], for which the “h-α2A pIC50” value on hα2A receptor turned out to be 7.5. Besides, the “h-α2C pIC50” value at hα2C receptor came out at 8.7. Moreover, the “h-5HTT pIC50” value at 5HT-Transporter is 5.6.
With `C/C(=C\c1ccccc1)CN1CCC(Nc2nccn(-c3ccc(CN(C)Cc4ccccc4)cc3)c2=O)CC1` [1-54], the IC50 is 50.1 nM at hα2A receptor, 3.98 nM at hα2C receptor and 200 nM at 5HT-Transporter.
Taken in the same sequence, the figures for `CCOC(=O)CCCCn1ccnc(NC2CCN(C/C=C/c3ccccc3)CC2)c1=O` [16-11] were 794 nM, 158 nM and 631 nM.
Taken in the same sequence, the figures for `CCCC(=O)N(CCCn1ccnc(NC2CCN(C/C(C)=C/c3ccccc3)CC2)c1=O)Cc1ccccc1` [1-85] were 158 nM, 10 nM and 1260 nM.
Regarding `C/C(=C\c1ccccc1)CN1CCC(Nc2nccn(CCCN(C)Cc3ccccc3)c2=O)CC1` [1-51], the figures for the IC50 at hα2A receptor, on hα2C receptor and on 5HT-Transporter were 50.1 nM, 1 nM and 1000 nM, respectively.
Take `O=c1c(NC2CCN(C/C=C/c3ccccc3)CC2)nccn1CCc1ccccc1` [16-14]: the IC50 is 794 nM on hα2A receptor, 200 nM at hα2C receptor and 794 nM on 5HT-Transporter.
Take `C/C(=C\c1ccccc1)CN1CCC(Nc2nccn(Cc3cccc(Cl)c3)c2=O)CC1` [5-18]: the values for the IC50 at hα2A receptor, on hα2C receptor and on 5HT-Transporter were 126 nM, 39.8 nM and 631 nM, respectively.
Regarding `C/C(=C\c1ccccc1)CN1CCN(c2nccn(CC(=O)C(C)(C)C)c2=O)CC1` [14-4], the figures for the IC50 at hα2A receptor, at hα2C receptor and on 5HT-Transporter were 398 nM, 63.1 nM and over 10000 nM, respectively.
In the same order, the values of `O=c1c(NC2CCN(C/C=C/c3ccccc3)CC2)nccn1CC1CCCCO1` (stereo not drawn) [16-19] are 1580 nM, 316 nM and 5010 nM.
`C/C(=C\c1ccccc1)CN1CCC(N(C)c2nccn(Cc3ccc(CN(C)C)cc3)c2=O)CC1` [15-2]: the figures for the IC50 on hα2A receptor, on hα2C receptor and at 5HT-Transporter were 31.6 nM, 3.16 nM and 1000 nM, respectively.
Regarding `C/C(=C\c1ccccc1)CN1CCC(Nc2nccn(CC3CCCCC3)c2=O)CC1` [7-6], the IC50 at hα2A receptor was 200 nM; at hα2C receptor it was 50.1 nM; on 5HT-Transporter, 1580 nM.
On to `C/C(=C\c1ccccc1)CN1CCC(Nc2nccn(Cc3ccccc3C#N)c2=O)CC1` [5-19], for which the IC50 at hα2A receptor was 100 nM; at hα2C receptor, 20 nM; on 5HT-Transporter, 398 nM.
Taken in the same sequence, the figures for `C/C(=C\c1ccccc1)CN1CCC(Nc2nccn(CC(=O)NCCCN3CCCC3=O)c2=O)CC1` [1-132] were 316 nM, 12.6 nM and 2510 nM.
Consider `C/C(=C\c1ccccc1)CN1CCC(Nc2nc(Cl)c(-c3cccc(Br)c3)[nH]c2=O)CC1` [17-1], for which the results for the IC50 on hα2A receptor, at hα2C receptor and on 5HT-Transporter were 1000 nM, 200 nM and 316 nM, respectively.
Consider `C/C(=C\c1ccccc1)CN1CCN(c2nccn(Cc3ccccc3)c2=O)CC1` [12-1], for which the values for the IC50 at hα2A receptor, on hα2C receptor and on 5HT-Transporter were 63.1 nM, 63.1 nM and 3160 nM, respectively.
For the compound `C/C(=C\c1ccccc1)CN1CCC(Nc2nccn(Cc3ccc(CNC(=O)c4ccccc4)cc3)c2=O)CC1` [1-73], the IC50 was 158 nM on hα2A receptor, 31.6 nM on hα2C receptor and 316 nM at 5HT-Transporter.
Taken in the same sequence, the figures for `COCCCn1ccnc(NC2CCN(C/C(C)=C/c3ccccc3)CC2)c1=O` [3-6] were 631 nM, 63.1 nM and 3980 nM.
Taken in the same sequence, the figures for `C/C(=C\c1ccccc1)CN1CCN(c2nccn(Cc3ccc(CNC(=O)OC(C)(C)C)cc3)c2=O)CC1` [8-4] were 158 nM, 79.4 nM and 1260 nM.
In the same order, the values of `C/C(=C\c1ccccc1)CN1CCC(Nc2nccn(-c3ccncc3)c2=O)CC1` [6-12] are 50.1 nM, 7.94 nM and 1580 nM.
In the case of `O=C1c2ccccc2C(=O)N1CCCn1ccnc(NC2CCN(C/C=C/c3ccccc3)CC2)c1=O` [16-8], the values for the IC50 on hα2A receptor, on hα2C receptor and on 5HT-Transporter were 501 nM, 12.6 nM and 200 nM, respectively.
In the same order, the values of `COC(=O)CN(C)C(=O)Cn1ccnc(NC2CCN(C/C(C)=C/c3ccccc3)CC2)c1=O` [1-97] are 126 nM, 10 nM and 2510 nM.
Taken in the same sequence, the figures for `C/C(=C\c1ccccc1)CN1CCC(Nc2nccn(CC(=O)N(CCN3CCCC3)Cc3ccc(F)cc3)c2=O)CC1` [1-136] were 10 nM, 0.316 nM and 631 nM.
In the same order, the values of `C/C(=C\c1ccccc1)CN1CCC(Nc2nccn(CCN3CCOCC3)c2=O)CC1` [2-39] are 316 nM, 20 nM and 7940 nM.
Take `C/C(=C\c1ccccc1)CN1CCC(Nc2nccn(CN3C(=O)c4ccccc4C3=O)c2=O)CC1` [2-48]: the IC50 at hα2A receptor was 31.6 nM; at hα2C receptor, 6.31 nM; on 5HT-Transporter, 158 nM.
`C/C(=C\c1ccccc1)CN1CCC(Nc2nccn(CC(=O)NCCN3CCOCC3)c2=O)CC1` [1-148]: the figures for the IC50 at hα2A receptor, on hα2C receptor and on 5HT-Transporter were 251 nM, 7.94 nM and 1260 nM, respectively.
In the case of `C/C(=C\c1ccccc1)CN1CCC(Nc2nccn(-c3cccc(CN(C)CCN(C)C)c3)c2=O)CC1` [1-109], the “h-α2A pIC50” value on hα2A receptor is 8.2. Moreover, the “h-α2C pIC50” value at hα2C receptor stood at 8.6. For the same compound, the “h-5HTT pIC50” value on 5HT-Transporter came to 6.5.
As for `C/C(=C\c1ccccc1)CN1CCC(Nc2nccn(CC(=O)C(C)(C)C)c2=O)CC1` [7-8], the IC50 is 126 nM at hα2A receptor, 12.6 nM at hα2C receptor and over 10000 nM on 5HT-Transporter.
As to `C/C(=C\c1ccccc1)CN1CCC(Nc2nccn(-c3cccc(CNCCN4CCCC4)c3)c2=O)CC1` [1-130], the “h-α2A pIC50” value on hα2A receptor stood at 8.2. For the same compound, the “h-α2C pIC50” value on hα2C receptor is reported as 8.8. Besides, the “h-5HTT pIC50” value at 5HT-Transporter is 6.7.
Regarding `CSCCn1ccnc(NC2CCN(C/C=C/c3ccccc3)CC2)c1=O` [16-12], the IC50 was 794 nM at hα2A receptor, 316 nM on hα2C receptor and 2510 nM at 5HT-Transporter.
As for `CC(=O)NCc1ccc(-n2ccnc(NC3CCN(C/C(C)=C/c4ccccc4)CC3)c2=O)cc1` [1-29], the “h-α2A pIC50” value at hα2A receptor was 7.0. Moreover, the “h-α2C pIC50” value on hα2C receptor was 8.1. Moreover, on 5HT-Transporter, the “h-5HTT pIC50” value stood at 6.0.
For `C/C(=C\c1ccccc1)CN1CCC(Nc2nccn(CC(=O)c3ccc(N4CCCC4)cc3)c2=O)CC1` [2-1], the results for the IC50 at hα2A receptor, at hα2C receptor and on 5HT-Transporter were 31.6 nM, 39.8 nM and 1260 nM, respectively.
Taken in the same sequence, the figures for `CSCCn1ccnc(N2CCN(C/C(C)=C/c3ccccc3)CC2)c1=O` [11-1] were 316 nM, 79.4 nM and 6310 nM.
Consider `C/C(=C\c1ccccc1)CN1CCC(Nc2nccn(Cc3cccc(F)c3)c2=O)CC1` [5-12], for which the IC50 on hα2A receptor was 100 nM; at hα2C receptor it was 25.1 nM; at 5HT-Transporter it was 501 nM.
